PMC5640672, “Molecular mechanism of synergy between the antimicrobial peptides PGLa and magainin 2” (Scientific Reports, 2017)
No end group written: not given here.

What was measured:
S. aureus DSM 1104 = test: Checker-board assay (FICI); assay type: cell-based, Staphylococcus aureus; details: for FICI in combination with MAG2-WT: below 0.5 = synergistic activity
Procedure: (§1) A suitable method to study synergistic antimicrobial activity is the so-called checker-board assay, described in the Methods section. We performed such experiments on one Gram-negative bacterium, E. coli, and one Gram-positive one, S. aureus. From this method a fractional inhibitory concentration index (FICI) is determined, and when this is below 0.5, the peptides are said to have a synergistic effect against bacteria. This is the biologically relevant effect, but we are here interested in the atomistic details of the interactions behind the effect. Therefore we also use biophysical methods.
The antimicrobial activity of the peptides was investigated with a standard MIC assay[87],[88] on one Gram positive (Staphylococcus aureus, DSM 1104, ATCC 25923) and one Gram negative bacterial strain (Escherichia coli, DSM 1103, ATCC 25922). Bacteria were grown in Müller-Hinton medium (MH) at 37 °C and 220 rpm. Overnight cultures were inoculated from a single colony and grown for approximately 16 h. Day cultures were grown for approximately 3 h until they reached the exponential growth phase. These suspensions were diluted with MH-medium to a concentration of 10^6 colony-forming units (CFU) per ml. The microtiter plates (96 wells of 100 µL) were filled with 50 µL of MH, and serial 2-fold dilutions of each peptide were arranged in triplets along the columns. […] Two columns were filled with medium only, to serve as a positive control (bacteria), and as a negative control (no bacteria) to check for contamination of the medium. The bacterial suspension was added in 50 µL aliquots to each well, except for the negative control, to reach a final concentration of 5 × 10^5 CFU/ml. The plates were incubated for 22 h at 37 °C. To each well 20 µL of 0.2 mg/ml Resazurin solution was added and incubated for another two hours. The MIC value was determined visually, as the lowest peptide concentration which inhibited bacterial growth in at least two out of three columns.
To visualize synergy between different peptides, a two-dimensional dilution assay was used[89],[90]. The same bacterial strains were used as in the MIC assay. The procedure of preparing the bacterial suspensions was analogous to the MIC assay, but with a higher final concentration because the volumes in the two setups are different. The main plate (MP) was filled with 40 µl of MH, and serial 2-fold dilutions of the peptide were arranged in each row (8 rows × 7 columns). As described above, the first column was filled with doubly concentrated medium. On another plate (HP, help plate) a second peptide dilution assay was performed, but orthogonal to the main plate. The last row was left empty (7 rows × 8 columns). 40 µL of each well of the HP were transferred to each well of the MP (A1 → A1, etc.). Two columns were filled with medium only, to serve as a positive control (bacteria), and as a negative control (no bacteria) to check for contamination of the medium. The bacterial suspension was added in 20 µL aliquots to each well, except for the negative control, to reach a final concentration of 5 × 10^5 CFU/ml. The plates were incubated for 22 h at 37 °C. To each well 20 µL of 0.1 mg/ml Resazurin solution was added and incubated for another two hours. From these plates, it is possible to determine the MIC value for each of the two peptides, as well as the inhibitory values of the mixtures with 7 × 7 different peptide ratios. From these values, fractional inhibitory concentration indices (FICIs) were calculated with the following formula[89],[91]:1 FICI=[MIC(A)^comb/MIC(A)^alone]+[MIC(B)^comb/MIC(B)^alone] In this formula, MIC(A)^alone is the MIC value determined for peptide A alone, and MIC(A)^comb is the concentration of peptide A at the MIC determined for the combination. The same holds for peptide B. FICI values below 0.5 are taken to indicate a clear synergistic effect, values between 0.5 and 2 an additive effect, and values above 2 an antagonistic effect[89],[92].

E. coli DSM 1103 = test: Checker-board assay (FICI); assay type: cell-based, Escherichia coli; details: below 0.5 = synergistic activity
Procedure: as §1
The antimicrobial activity of the peptides was investigated with a standard MIC assay[87],[88] on one Gram positive (Staphylococcus aureus, DSM 1104, ATCC 25923) and one Gram negative bacterial strain (Escherichia coli, DSM 1103, ATCC 25922). Bacteria were grown in Müller-Hinton medium (MH) at 37 °C and 220 rpm. Overnight cultures were inoculated from a single colony and grown for approximately 16 h. Day cultures were grown for approximately 3 h until they reached the exponential growth phase. These suspensions were diluted with MH-medium to a concentration of 10^6 colony-forming units (CFU) per ml. The microtiter plates (96 wells of 100 µL) were filled with 50 µL of MH, and serial 2-fold dilutions of each peptide were arranged in triplets along the columns. […] The MIC value was determined visually, as the lowest peptide concentration which inhibited bacterial growth in at least two out of three columns.
To visualize synergy between different peptides, a two-dimensional dilution assay was used[89],[90]. […] From these values, fractional inhibitory concentration indices (FICIs) were calculated with the following formula[89],[91]:1 FICI=[MIC(A)^comb/MIC(A)^alone]+[MIC(B)^comb/MIC(B)^alone] In this formula, MIC(A)^alone is the MIC value determined for peptide A alone, and MIC(A)^comb is the concentration of peptide A at the MIC determined for the combination. […]

Substance	FICI in combination with PGLa-WT (S. aureus DSM 1104)	FICI in combination with MAG2-WT (E. coli DSM 1103)	FICI in combination with MAG2-WT (S. aureus DSM 1104)
GIGKFLHSAKKFGKAFVGKIMNS-NH 2 (GIGKFLHSAKKFGKAFVGKIMNS-NH2) [MAG2-E19K-amide, amidated MAG2 E19K mutant]	above 0.5		
GIGKFLHSAKKFGKAFVGKIMNS-OH [MAG2-E19K, MAG2 charge mutant E19K]	above 0.5		
GMASKAGAIAGKIAKIAGKIA-NH2 [PtM-c1, PGLa to MSI-103 mutant, segment C replaced]		below 0.5	below 0.5
GMASKAGKIAGKIAKVALKAL-NH2 (also: 15N-labeled Ala10) [PtM-A8K, PGLa single mutant A8K]			below 0.5
GMASKIGAIAGKIAKVALKAL-NH2 (also: 15N-labeled Ala10) [PtM-A6I, PGLa single mutant A6I]			below 0.5
KIAGKAGAIAGKIAKVALKAL-NH2 [PtM-a2, PGLa to MSI-103 mutant, three amino acids converted]		below 0.5	below 0.5
KIAGKIGKIAGKIAKIAGKIA-NH2 [MtP-A7G, MSI-103 to PGLa single mutant A7G]		below 0.5	below 0.5
